According to patent publication US9434994B2, “Methods for prediction of clinical outcome to epidermal growth factor receptor inhibitors by non-small cell lung cancer patients” (The Regents of the University of Colorado, a body corporate, priority 2004, dated 2016):
Like-named read-outs stand apart in the source and are kept apart here.

System: NSCLC patients
[1] = EGFR FISH+/EGFR mutation+ (17 patients)
[2] = FISH +, IHC +, EGFR Mut +, n 12
[3] = FISH +, IHC +, EGFR Mut −, n 20
[4] = FISH −, IHC +, EGFR Mut +, n 12
[5] = FISH −, IHC +, EGFR Mut −, n 39
[6] = FISH −, IHC −, EGFR Mut −, n 37
[7] = FISH+ or EGFR + (EGFR mutation), 46 pts
[8] = FISH+/EGFR+ (EGFR mutation), 17 pts
[9] = FISH−/EGFR− (EGFR mutation), 80 pts
[10] = triple positive: EGFR FISH, EGFR IHC, P-AKT
[11] = triple positive: EGFR FISH, IHC, mutation (12 patients)

Description: In order to make a more substantial statistical analysis and power, the inventors have analyzed the combined data set, which includes altogether 204 patients with NSCLC.
The multivariable analysis is based on an initial univariable analysis including clinical- and biological markers by using backward stepwise regression methods. All univariately significant covariates were included in the stepwise selection.

COc1cc2ncnc(Nc3ccc(F)c(Cl)c3)c2cc1OCCCN1CCOCC1 [gefitinib]
HR, survival, multivariable (Current/Former smokers): 2.68
DC (disease control) (EGFR FISH+): 65%
MS (95% CI) (EGFR FISH+): 18 (14-21) months
OR (overall response) (EGFR FISH+): 33%
TTP, median (95% CI) (EGFR FISH+): 9 (5-10) months
1-yr survival (EGFR FISH+ or IHC+): 44% (33-55)
DCR (EGFR FISH+ or IHC+): 43%
MS (EGFR FISH+ or IHC+): 11 (7-15) mo
RSP (EGFR FISH+ or IHC+): 10%
TTP (EGFR FISH+ or IHC+): 3 (2-5) mo
Disease Control Rate [1]: 69%
response rate [1]: 69%
time to progression [1]: 16 months
Median Survival (EGFR FISH+/EGFR mutation+, not yet achieved): exceeding 20 months
DCR (EGFR FISH+/IHC+): 76%
MS (EGFR FISH+/IHC+): 21 (15-21) mo
RSP (EGFR FISH+/IHC+): 41%
TTP (EGFR FISH+/IHC+): 9 (6-16) mo
DC (disease control) (EGFR FISH-): 30%
MS (95% CI) (EGFR FISH-): 8 (6-11) months
OR (overall response) (EGFR FISH-): 6%
TTP, median (95% CI) (EGFR FISH-): 3 (2-3) months
Disease Control Rate (EGFR FISH-/EGFR mutation-): 29%
response rate (EGFR FISH-/EGFR mutation-): 3%
time to progression (EGFR FISH-/EGFR mutation-): 3 month
DCR (EGFR FISH-/IHC-): 17%
MS (EGFR FISH-/IHC-): 6 (4-8) mo
RSP (EGFR FISH-/IHC-): 2%
TTP (EGFR FISH-/IHC-): 2 (2-3) mo
DC (disease control) (EGFR IHC+): 56%
MS (95% CI) (EGFR IHC+): 14 (11-21) months
OR (overall response) (EGFR IHC+): 22%
TTP, median (95% CI) (EGFR IHC+): 5 (3-7) months
DC (disease control) (EGFR IHC-): 27%
HR, survival, multivariable (EGFR IHC-): 1.70
MS (95% CI) (EGFR IHC-): 7 (5-10) months
OR (overall response) (EGFR IHC-): 5%
TTP, median (95% CI) (EGFR IHC-): 3 (2-3) months
DC (disease control) (EGFR Mutation+): 52%
MS (95% CI) (EGFR Mutation+): 13 (6-21)
OR (overall response) (EGFR Mutation+): 39%
TTP, median (95% CI) (EGFR Mutation+): 3 (2-11)
DC (disease control) (EGFR Mutation-): 37%
MS (95% CI) (EGFR Mutation-): 11 (7-13)
OR (overall response) (EGFR Mutation-): 7%
TTP, median (95% CI) (EGFR Mutation-): 3 (2-4)
1-yr survival (EGFR mutation+ or IHC+): 50% (39-61)
DCR (EGFR mutation+ or IHC+): 47%
MS (EGFR mutation+ or IHC+): 12 (8-15) mo
RSP (EGFR mutation+ or IHC+): 12%
TTP (EGFR mutation+ or IHC+): 3 (2-5) mo
1-yr survival (EGFR mutation+/IHC+): 63% (45-81)
MS (EGFR mutation+/IHC+): 21 (10-21) mo
RSP (EGFR mutation+/IHC+): 50%
TTP (EGFR mutation+/IHC+): 10 (2-16) mo
MS (EGFR mutation-/IHC-): 7 (5-12) mo
RSP (EGFR mutation-/IHC-): 2%
TTP (EGFR mutation-/IHC-): 2 (2-3) mo
1-yr surv [2]: 100%
DCR [2]: 78%
OR (response rate) [2]: 78%
TTP [2]: 20 (11-20) months
1-yr surv [3]: 64% (42-86)
OR (response rate) [3]: 22%
OS (median survival) [3]: 15 (6-16) months
TTP [3]: 5 (3-12) months
1-yr surv (FISH +, IHC +, P-AKT +, N 34): 84% (70-97)
DCR (FISH +, IHC +, P-AKT +, N 34): 80%
OR (response rate) (FISH +, IHC +, P-AKT +, N 34): 43%
TTP (FISH +, IHC +, P-AKT +, N 34): 12 (6-19) months
1-yr surv (FISH +, IHC +, P-AKT −, N 4): 75% (33-100)
OR (response rate) (FISH +, IHC +, P-AKT −, N 4): 0%
OS (median survival) (FISH +, IHC +, P-AKT −, N 4): 18 (5-18) months
TTP (FISH +, IHC +, P-AKT −, N 4): 9 (2-9) months
1-yr surv (FISH +, IHC −, EGFR Mut +, n 5): 60% (17-100)
DCR (FISH +, IHC −, EGFR Mut +, n 5): 50%
OR (response rate) (FISH +, IHC −, EGFR Mut +, n 5): 50%
TTP (FISH +, IHC −, EGFR Mut +, n 5): 3 (2-9) months
1-yr surv (FISH +, IHC −, EGFR Mut −, n 8): 38% (7-66)
DCR (FISH +, IHC −, EGFR Mut −, n 8): 39%
OR (response rate) (FISH +, IHC −, EGFR Mut −, n 8): 0%
OS (median survival) (FISH +, IHC −, EGFR Mut −, n 8): 9 (1-9) months
TTP (FISH +, IHC −, EGFR Mut −, n 8): 2 (1-6) months
1-yr surv (FISH +, IHC −, P-AKT +, N 15): 53% (28-79)
DCR (FISH +, IHC −, P-AKT +, N 15): 46%
OR (response rate) (FISH +, IHC −, P-AKT +, N 15): 15%
OS (median survival) (FISH +, IHC −, P-AKT +, N 15): 14 (3-19) months
TTP (FISH +, IHC −, P-AKT +, N 15): 3 (2-6) months
1-yr surv (FISH +, IHC −, P-AKT −, N 2): 0% (0-69)
DCR (FISH +, IHC −, P-AKT −, N 2): 0%
OR (response rate) (FISH +, IHC −, P-AKT −, N 2): 0%
OS (median survival) (FISH +, IHC −, P-AKT −, N 2): 9 (NA) months
TTP (FISH +, IHC −, P-AKT −, N 2): 2 (NA) months
1-yr surv [4]: 42% (1470)
DCR [4]: 44%
OR (response rate) [4]: 22%
OS (median survival) [4]: 11 (3-11) months
TTP [4]: 4 (2-7) months
1-yr surv [5]: 49% (33-64)
DCR [5]: 41%
OR (response rate) [5]: 3%
OS (median survival) [5]: 11 (8-18) months
TTP [5]: 3 (2-5) months
1-yr surv (FISH −, IHC +, P-AKT +, N 35): 43% (26-59)
DCR (FISH −, IHC +, P-AKT +, N 35): 47%
OR (response rate) (FISH −, IHC +, P-AKT +, N 35): 13%
OS (median survival) (FISH −, IHC +, P-AKT +, N 35): 11 (6-15) months
TTP (FISH −, IHC +, P-AKT +, N 35): 4 (2-6) months
1-yr surv (FISH −, IHC +, P-AKT −, N 23): 47% (27-68)
DCR (FISH −, IHC +, P-AKT −, N 23): 50%
OR (response rate) (FISH −, IHC +, P-AKT −, N 23): 6%
OS (median survival) (FISH −, IHC +, P-AKT −, N 23): 9 (7-9) months
TTP (FISH −, IHC +, P-AKT −, N 23): 4 (2-7) months
1-yr surv (FISH −, IHC −, EGFR Mut +, n 6): 0% (0-30)
DCR (FISH −, IHC −, EGFR Mut +, n 6): 0%
OR (response rate) (FISH −, IHC −, EGFR Mut +, n 6): 0%
OS (median survival) (FISH −, IHC −, EGFR Mut +, n 6): 3 (1-3) months
TTP (FISH −, IHC −, EGFR Mut +, n 6): 2 (1-2) months
1-yr surv [6]: 37% (21-52)
DCR [6]: 21%
OR (response rate) [6]: 3%
OS (median survival) [6]: 6 (4-12) months
TTP [6]: 2 (2-3) months
1-yr surv (FISH −, IHC −, P-AKT +, N 32): 29% (13-44)
DCR (FISH −, IHC −, P-AKT +, N 32): 18%
OR (response rate) (FISH −, IHC −, P-AKT +, N 32): 4%
OS (median survival) (FISH −, IHC −, P-AKT +, N 32): 6 (4-10) months
TTP (FISH −, IHC −, P-AKT +, N 32): 2 (2-3) months
1-yr surv (FISH −, IHC −, P-AKT −, N 17): 29% (8-51)
DCR (FISH −, IHC −, P-AKT −, N 17): 14%
OR (response rate) (FISH −, IHC −, P-AKT −, N 17): 0%
OS (median survival) (FISH −, IHC −, P-AKT −, N 17): 6 (4-12) months
TTP (FISH −, IHC −, P-AKT −, N 17): 2 (2-5) months
1-yr (1-year survival) [7]: 45% (30-59)
MS (mo) (median survival) [7]: 10 (5-14) mo
RSP (response rate) [7]: 15%
TTP (mo) (time to progression) [7]: 3 (2-5) mo
1-yr (1-year survival) [8]: 67% (71-100)
RSP (response rate) [8]: 69%
TTP (mo) (time to progression) [8]: 16 (3-20) mo
1-yr (1-year survival) [9]: 42% (31-53)
DCR (disease control rate) [9]: 29%
MS (mo) (median survival) [9]: 10 (6-13) mo
RSP (response rate) [9]: 3%
TTP (mo) (time to progression) [9]: 3 (2-3) mo
1-yr OS (KRAS Mutation+): 49% (33%-66%)
DC (disease control) (KRAS Mutation+): 39%
MS (95% CI) (KRAS Mutation+): 11 (6-23)
OR (overall response) (KRAS Mutation+): 7%
TTP, median (95% CI) (KRAS Mutation+): 3 (2-4)
1-yr OS (KRAS Mutation-): 50% (40%-60%)
DC (disease control) (KRAS Mutation-): 40%
MS (95% CI) (KRAS Mutation-): 12 (8-15)
TTP, median (95% CI) (KRAS Mutation-): 3 (2-4)
DC (disease control) (P-AKT+): 49%
MS (95% CI) (P-AKT+): 13 (10-16)
TTP, median (95% CI) (P-AKT+): 4 (3-5)
1-yr survival (P-AKT+ or EGFR IHC+): 43% (32-54)
DCR (P-AKT+ or EGFR IHC+): 34%
MS (P-AKT+ or EGFR IHC+): 8 (6-14) mo
RSP (P-AKT+ or EGFR IHC+): 6%
TTP (P-AKT+ or EGFR IHC+): 3 (2-3) mo
1-yr survival (P-AKT+/EGFR IHC+): 63% (51-74)
MS (P-AKT+/EGFR IHC+): 16 (12-21) mo
RSP (P-AKT+/EGFR IHC+): 30%
TTP (P-AKT+/EGFR IHC+): 6 (4-10) mo
DC (disease control) (P-AKT-): 33%
MS (95% CI) (P-AKT-): 8 (6-14)
OR (overall response) (P-AKT-): 2%
TTP, median (95% CI) (P-AKT-): 3 (2-5)
DCR (P-AKT-/EGFR IHC-): 21%
MS (P-AKT-/EGFR IHC-): 6 (5-9) mo
TTP (P-AKT-/EGFR IHC-): 2 (2-4) mo
Disease Control Rate (both cohorts, total): 43%
Median Survival (both cohorts, total): 11 (8-14)
Median Time to Progression (both cohorts, total): 3 (3-4)
One-YR Survival (both cohorts, total): 48% (41-55)
Overall Response (both cohorts, total): 15%
HR, survival, multivariable (performance status 2): 3.64
Disease Control Rate [10]: 80%
response rate [10]: 43%
time to progression [10]: 12 months
Median Survival (triple positive: EGFR FISH, EGFR IHC, P-AKT, not achieved yet): exceeding 20 months
1-year survival [11]: 100%
Disease Control Rate [11]: 78%
response rate [11]: 78%
time to progression [11]: 20 months
Median Survival (triple positive: EGFR FISH, IHC, mutation, not yet achieved): exceeding 20 months
